Results published in ChEMBL document CHEMBL4602617, “Discovery and optimization of heteroaryl piperazines as potent and selective PI3Kδ inhibitors” (Bioorg Med Chem Lett, 2020).

Columns and labels:
[1] = target: Testis-specific serine/threonine-protein kinase 2 (Homo sapiens, UniProt Q96PF2); test: Inhibition of recombinant full length human His-tagged STK22B expressed in baculovirus expression system using serine/threonine-04 peptide as substrate incubated for 60 mins in presence of ATP by Z'-LYTE assay
[2] = Clearance in rat liver microsomes; format: ADME, Microsome; conditions: read-out: CLH
[3] = target: Metabotropic glutamate receptor 5 (Homo sapiens) (UniProt P41594); test: Displacement of [3H]quisqualic acid from full length human recombinant mGlu5 receptor expressed in CHO-K1 cells at 10 uM measured after 120 mins by radiometric scintillation analysis relative to control; format: cell-based
[4] = target: Mitogen-activated protein kinase 13 (Homo sapiens, UniProt O15264); test: Inhibition of recombinant full length human His-tagged p38delta expressed in baculovirus expression system using serine/threonine-3 peptide as substrate incubated for 60 mins in presence of ATP by Z'-LYTE assay
[5] = target: Acetylcholine receptor subunit alpha (Homo sapiens) (UniProt P02708); test: Displacement of [125I]-alpha-Bungarotoxin from full length nAChR alpha1 receptor in human RD cell membranes at 10 uM measured after 120 mins by radiometric scintillation analysis relative to control
CDK2/Cyclin A2 = CDK2/Cyclin A2 (Homo sapiens, UniProt P24941); test: Inhibition of recombinant full length human His-tagged CDK2/Cyclin A expressed in baculovirus expression system using serine/threonine-12 peptide as substrate incubated for 60 mins in presence of ATP by Z'-LYTE assay
[6] = target: Beta-2 adrenergic receptor (Homo sapiens) (UniProt P07550); test: Displacement of [3H]CGP-12177 from full-length recombinant human beta2 adrenergic receptor expressed in CHO cells co-expressing NBR1 at 10 uM measured after 60 mins by scintillation counting method relative to control; format: cell-based
[7] = target: cGMP-dependent protein kinase 1 (Homo sapiens, UniProt Q13976); test: Inhibition of recombinant full length human GST-tagged PRKG1 expressed in baculovirus expression system using serine/threonine-01 peptide as substrate incubated for 60 mins in presence of ATP by Z'-LYTE assay
[8] = target: PI3-kinase p110-delta/p85-alpha (Homo sapiens, UniProt O00329); test: Inhibition of recombinant human full-length N-terminal GST-tagged p110delta/untagged full-length p85alpha expressed in baculovirus infected Sf21 cells using PIP2 as substrate preincubated for 15 mins followed by substrate addition and measured after 1 hr by HTRF assay
[9] = target: Leucine-rich repeat serine/threonine-protein kinase 2 (Homo sapiens, UniProt Q5S007, G2019S); test: Inhibition of recombinant human GST-tagged LRRK2 G2019S mutant catalytic domain (970 to 2527 residues) expressed in baculovirus expression system using LRRKtide as substrate measured after 1 hr in presence of ATP by ADAPTA assay
[10] = target: Dual specificity protein kinase CLK2 (Homo sapiens, UniProt P49760); test: Inhibition of recombinant human GST-tagged CLK2 catalytic domain (137 to 498 residues) expressed in baculovirus expression system using serine/threonine-6 peptide as substrate incubated for 60 mins in presence of ATP by Z'-LYTE assay
[11] = target: Casein kinase I isoform gamma-2 (Homo sapiens, UniProt P78368); test: Inhibition of recombinant human full-length His-tagged CSNK1G2 expressed in baculovirus expression system using FRET-labeled Ser/Thr 05 peptide as substrate measured after 1 hr in presence of ATP by Z'-lyte assay
[12] = target: Tyrosine-protein kinase Blk (Homo sapiens, UniProt P51451); test: Inhibition of recombinant full length human His-tagged BLK cytoplasmic domain expressed in baculovirus expression system using tyrosine-1 peptide as substrate incubated for 60 mins in presence of ATP by Z'-LYTE assay
[13] = target: MAP/microtubule affinity-regulating kinase 3 (Homo sapiens, UniProt P27448); test: Inhibition of recombinant full length human GST-tagged MARK3 expressed in baculovirus expression system using serine/threonine-25 peptide as substrate incubated for 60 mins in presence of ATP by Z'-LYTE assay
[14] = target: Inhibitor of nuclear factor kappa-B kinase subunit epsilon (Homo sapiens, UniProt Q14164); test: Inhibition of recombinant human full-length GST-tagged IKBKE expressed in baculovirus expression system using Ser/Thr 11 peptide as substrate measured after 1 hr in presence of ATP by Z'-lyte assay
[15] = target: Cholecystokinin receptor type A (Homo sapiens) (UniProt P32238); test: Displacement of [3H]L-364,718 from recombinant full length human recombinant CCK1 expressed in 1321-N1 cells at 10 uM measured after 60 mins by radiometric scintillation analysis relative to control; format: cell-based
[16] = target: Epidermal growth factor receptor (Homo sapiens, UniProt P00533, L858R); test: Inhibition of human recombinant GST-tagged EGFR L858R mutant expressed in baculovirus expression system using tyrosine 4 peptide as substrate after 60 mins in presence of ATP FRET based Z'-LYTE assay
[17] = target: Protein kinase C delta type (Homo sapiens, UniProt Q05655); test: Inhibition of recombinant full length human GST-tagged PRKCD expressed in insect expression system using serine/threonine-7 peptide as substrate incubated for 60 mins in presence of ATP by Z'-LYTE assay
[18] = target: Tyrosine-protein kinase Fer (Homo sapiens, UniProt P16591); test: Inhibition of recombinant GST-tagged human FER (541 to 822 residues) cytoplasmic domain expressed in baculovirus expression system using Tyr 05 peptide as substrate after 1 hr in presence of ATP by Z'-LYTE assay
[19] = target: Epidermal growth factor receptor (Homo sapiens, UniProt P00533); test: Inhibition of recombinant human GST-tagged EGFR expressed in baculovirus expression system using tyr-04 peptide as substrate incubated for 60 mins in presence of ATP by Z'-LYTE assay
[20] = target: Substance-K receptor (Homo sapiens) (UniProt P21452); test: Inhibition of human NK2 receptor at 10 uM relative to control
[21] = target: Phosphorylase b kinase gamma catalytic chain, liver/testis isoform (Homo sapiens, UniProt P15735); test: Inhibition of recombinant full length human N-terminal GST-tagged PHKG2 expressed in baculovirus expression system using serine/threonine-7 peptide as substrate incubated for 60 mins in presence of ATP by Z'-LYTE assay
Rattus norvegicus = species on record: Rattus norvegicus; test: Inhibition of rat kainate receptor at 10 uM relative to control
[22] = target: Histamine H2 receptor (Homo sapiens) (UniProt P25021); test: Displacement of [125I]aminopotentidine from full length human recombinant histamine H2 receptor expressed in CHO-K1 cells at 10 uM measured after 120 mins by radiometric scintillation analysis relative to control; format: cell-based
[23] = target: Vasoactive intestinal polypeptide receptor 1 (Homo sapiens) (UniProt P32241); test: Displacement of [125I]VIP from human HT-29 cells derived VIP1 at 10 uM after 60 mins by radiometric scintillation analysis relative to control; format: cell-based
[24] = target: Serine/threonine-protein kinase PAK 2 (Homo sapiens, UniProt Q13177); test: Inhibition of recombinant full length human GST-tagged PAK2 expressed in baculovirus expression system using serine/threonine-20 peptide as substrate incubated for 60 mins in presence of ATP by Z'-LYTE assay

Sequence of PI3-kinase p110-delta/p85-alpha (P27986 whole entry, the tested form may be a part): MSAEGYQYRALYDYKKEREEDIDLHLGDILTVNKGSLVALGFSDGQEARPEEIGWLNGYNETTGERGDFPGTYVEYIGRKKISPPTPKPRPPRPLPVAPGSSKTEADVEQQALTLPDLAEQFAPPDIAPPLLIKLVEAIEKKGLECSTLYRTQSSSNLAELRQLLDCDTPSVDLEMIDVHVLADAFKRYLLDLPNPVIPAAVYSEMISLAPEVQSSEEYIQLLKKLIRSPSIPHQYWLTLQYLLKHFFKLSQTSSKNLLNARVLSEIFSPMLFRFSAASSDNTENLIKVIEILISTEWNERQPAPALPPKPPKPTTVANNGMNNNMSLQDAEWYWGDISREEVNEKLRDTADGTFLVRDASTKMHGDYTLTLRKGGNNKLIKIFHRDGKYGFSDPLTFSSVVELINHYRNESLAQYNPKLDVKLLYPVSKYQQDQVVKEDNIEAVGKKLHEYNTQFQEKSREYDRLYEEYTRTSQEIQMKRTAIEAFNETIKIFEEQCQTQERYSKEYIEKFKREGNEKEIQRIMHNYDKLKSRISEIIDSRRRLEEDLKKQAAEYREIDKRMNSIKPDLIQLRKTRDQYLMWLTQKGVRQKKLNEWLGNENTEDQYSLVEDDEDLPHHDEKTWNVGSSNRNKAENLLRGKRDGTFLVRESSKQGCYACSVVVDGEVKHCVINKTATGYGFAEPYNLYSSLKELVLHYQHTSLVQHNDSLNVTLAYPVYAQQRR
Sequence of PI3-kinase p110-delta/p85-alpha (O00329 whole entry, the tested form may be a part): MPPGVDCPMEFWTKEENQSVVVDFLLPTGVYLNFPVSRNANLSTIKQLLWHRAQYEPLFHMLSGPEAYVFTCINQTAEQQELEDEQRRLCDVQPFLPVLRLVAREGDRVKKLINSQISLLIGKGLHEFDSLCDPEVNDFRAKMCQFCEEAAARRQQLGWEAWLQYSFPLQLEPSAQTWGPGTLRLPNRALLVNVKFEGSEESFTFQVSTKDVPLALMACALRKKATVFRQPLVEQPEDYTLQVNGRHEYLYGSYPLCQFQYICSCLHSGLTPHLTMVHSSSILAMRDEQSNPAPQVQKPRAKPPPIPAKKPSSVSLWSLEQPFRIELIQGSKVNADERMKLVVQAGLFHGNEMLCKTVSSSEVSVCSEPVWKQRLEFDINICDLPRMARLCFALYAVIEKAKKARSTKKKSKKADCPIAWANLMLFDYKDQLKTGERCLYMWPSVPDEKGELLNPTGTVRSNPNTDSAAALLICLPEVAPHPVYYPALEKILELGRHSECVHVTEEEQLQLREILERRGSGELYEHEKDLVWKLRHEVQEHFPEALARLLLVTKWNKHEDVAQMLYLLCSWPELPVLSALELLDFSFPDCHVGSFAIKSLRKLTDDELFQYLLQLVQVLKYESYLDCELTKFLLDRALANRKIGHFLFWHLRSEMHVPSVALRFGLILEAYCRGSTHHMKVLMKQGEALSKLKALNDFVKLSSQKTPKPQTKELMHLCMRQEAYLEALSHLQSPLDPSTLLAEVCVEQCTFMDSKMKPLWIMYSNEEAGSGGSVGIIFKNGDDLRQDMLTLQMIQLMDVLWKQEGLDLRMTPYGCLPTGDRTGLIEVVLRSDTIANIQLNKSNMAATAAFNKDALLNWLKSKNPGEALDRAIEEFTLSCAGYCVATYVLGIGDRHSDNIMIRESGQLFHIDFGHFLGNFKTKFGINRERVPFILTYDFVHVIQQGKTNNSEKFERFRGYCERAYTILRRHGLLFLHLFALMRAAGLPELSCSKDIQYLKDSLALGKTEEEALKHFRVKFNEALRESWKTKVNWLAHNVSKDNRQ
Sequence of cGMP-dependent protein kinase 1 (Q13976 whole entry): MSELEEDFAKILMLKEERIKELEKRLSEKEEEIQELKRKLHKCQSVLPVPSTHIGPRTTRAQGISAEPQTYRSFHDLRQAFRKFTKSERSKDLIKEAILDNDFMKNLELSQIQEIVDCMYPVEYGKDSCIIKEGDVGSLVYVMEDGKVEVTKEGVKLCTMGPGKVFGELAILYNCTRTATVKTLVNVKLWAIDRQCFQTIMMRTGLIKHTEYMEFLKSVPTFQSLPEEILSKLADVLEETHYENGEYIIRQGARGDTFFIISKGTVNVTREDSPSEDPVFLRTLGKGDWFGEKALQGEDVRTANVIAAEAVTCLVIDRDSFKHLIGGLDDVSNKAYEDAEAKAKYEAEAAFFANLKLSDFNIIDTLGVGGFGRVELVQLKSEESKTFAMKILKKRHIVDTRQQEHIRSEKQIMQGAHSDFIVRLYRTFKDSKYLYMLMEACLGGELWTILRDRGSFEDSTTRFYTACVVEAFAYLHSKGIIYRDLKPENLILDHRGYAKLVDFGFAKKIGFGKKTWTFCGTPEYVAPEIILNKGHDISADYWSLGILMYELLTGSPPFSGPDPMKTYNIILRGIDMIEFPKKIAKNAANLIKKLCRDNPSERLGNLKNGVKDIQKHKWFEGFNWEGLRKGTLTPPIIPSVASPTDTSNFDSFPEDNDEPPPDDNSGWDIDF
Sequence of Epidermal growth factor receptor (Homo sapiens, UniProt P00533, L858R) (P00533 25-1210 L858R limits assumed): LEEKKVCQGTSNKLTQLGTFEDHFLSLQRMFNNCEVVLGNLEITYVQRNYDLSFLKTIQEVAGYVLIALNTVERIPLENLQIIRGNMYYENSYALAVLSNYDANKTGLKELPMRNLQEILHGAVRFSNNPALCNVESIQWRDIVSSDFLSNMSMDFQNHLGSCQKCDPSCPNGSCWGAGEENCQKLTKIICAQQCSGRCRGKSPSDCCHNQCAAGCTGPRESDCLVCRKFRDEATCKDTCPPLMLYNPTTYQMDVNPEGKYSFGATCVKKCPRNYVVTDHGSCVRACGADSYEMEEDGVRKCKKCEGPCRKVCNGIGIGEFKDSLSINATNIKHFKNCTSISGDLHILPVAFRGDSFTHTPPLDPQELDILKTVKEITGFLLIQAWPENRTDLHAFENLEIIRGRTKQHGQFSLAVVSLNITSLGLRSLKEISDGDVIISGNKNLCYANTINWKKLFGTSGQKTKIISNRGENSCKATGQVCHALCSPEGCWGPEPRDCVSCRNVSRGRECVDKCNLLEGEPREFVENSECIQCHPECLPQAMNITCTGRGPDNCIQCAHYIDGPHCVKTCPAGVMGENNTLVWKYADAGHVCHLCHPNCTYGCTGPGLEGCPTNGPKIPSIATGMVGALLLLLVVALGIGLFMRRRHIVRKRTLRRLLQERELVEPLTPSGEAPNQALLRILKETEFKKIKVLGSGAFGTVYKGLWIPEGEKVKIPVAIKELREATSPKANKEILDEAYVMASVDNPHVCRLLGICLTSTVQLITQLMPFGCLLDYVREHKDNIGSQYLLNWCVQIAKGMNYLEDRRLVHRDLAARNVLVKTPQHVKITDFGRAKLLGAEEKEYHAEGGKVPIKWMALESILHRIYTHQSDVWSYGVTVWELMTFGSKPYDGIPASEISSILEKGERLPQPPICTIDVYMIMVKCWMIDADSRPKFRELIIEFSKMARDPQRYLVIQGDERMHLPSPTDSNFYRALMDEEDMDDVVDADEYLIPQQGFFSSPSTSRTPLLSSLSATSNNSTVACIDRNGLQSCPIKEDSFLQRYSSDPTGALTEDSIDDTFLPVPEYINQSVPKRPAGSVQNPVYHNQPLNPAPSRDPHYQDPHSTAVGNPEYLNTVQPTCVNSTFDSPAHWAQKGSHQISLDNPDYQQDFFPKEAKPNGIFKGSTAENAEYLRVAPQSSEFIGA
Sequence of Histamine H2 receptor (Homo sapiens) (P25021 whole entry): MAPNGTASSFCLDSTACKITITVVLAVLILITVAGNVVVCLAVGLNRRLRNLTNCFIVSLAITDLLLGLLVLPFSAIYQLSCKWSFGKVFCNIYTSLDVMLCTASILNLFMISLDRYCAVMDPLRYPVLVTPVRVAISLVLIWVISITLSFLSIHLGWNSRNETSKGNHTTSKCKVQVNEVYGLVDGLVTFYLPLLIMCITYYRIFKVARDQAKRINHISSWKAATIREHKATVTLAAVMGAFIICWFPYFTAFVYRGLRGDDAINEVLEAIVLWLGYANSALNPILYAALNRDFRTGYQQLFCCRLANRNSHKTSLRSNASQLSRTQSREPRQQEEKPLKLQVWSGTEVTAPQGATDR
Sequence of Phosphorylase b kinase gamma catalytic chain, liver/testis isoform (P15735 whole entry, canonical isoform): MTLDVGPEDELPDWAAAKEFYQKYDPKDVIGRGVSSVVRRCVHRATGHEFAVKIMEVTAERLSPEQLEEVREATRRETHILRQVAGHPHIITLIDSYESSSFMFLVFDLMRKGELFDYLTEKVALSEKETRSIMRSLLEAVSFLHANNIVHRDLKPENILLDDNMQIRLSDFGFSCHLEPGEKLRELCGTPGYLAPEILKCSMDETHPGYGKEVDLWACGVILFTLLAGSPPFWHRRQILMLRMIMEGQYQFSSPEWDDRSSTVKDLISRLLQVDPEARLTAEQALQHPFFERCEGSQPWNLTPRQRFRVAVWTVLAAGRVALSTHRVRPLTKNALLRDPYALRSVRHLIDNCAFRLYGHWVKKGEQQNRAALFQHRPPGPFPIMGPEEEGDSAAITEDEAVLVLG
Sequence of Mitogen-activated protein kinase 13 (O15264 whole entry): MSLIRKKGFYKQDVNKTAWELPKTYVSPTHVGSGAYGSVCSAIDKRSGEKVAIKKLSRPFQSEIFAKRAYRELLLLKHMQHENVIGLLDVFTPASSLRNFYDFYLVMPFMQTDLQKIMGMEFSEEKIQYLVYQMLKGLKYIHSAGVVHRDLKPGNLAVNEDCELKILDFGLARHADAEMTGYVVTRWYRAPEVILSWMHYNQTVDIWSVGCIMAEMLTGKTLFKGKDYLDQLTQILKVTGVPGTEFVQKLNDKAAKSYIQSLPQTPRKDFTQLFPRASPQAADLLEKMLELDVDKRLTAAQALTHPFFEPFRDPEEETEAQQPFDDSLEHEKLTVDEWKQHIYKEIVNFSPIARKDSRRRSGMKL

Structure (SMILES): C[C@@H]1C[C@H]1C(=O)N1CCN(c2cnc(C#N)c(-c3cnn(C)c3)n2)C[C@H]1C
- IC50 [1]: > 100 µM
- CLint scaled [2]: 47 mL/min/kg
- inhibition [3]: 8%
- IC50 [4]: > 100 µM
- inhibition [5]: 5%
- IC50 (CDK2/Cyclin A2): > 100 µM
- inhibition [6]: 7%
- IC50 [7]: > 100 µM
- IC50 [8]: 9 nM
- IC50 [9]: > 100 µM
- IC50 [10]: > 100 µM
- IC50 [11]: > 100 µM
- IC50 [12]: > 100 µM
- IC50 [13]: > 100 µM
- IC50 [14]: > 100 µM
- inhibition [15]: 3%
- IC50 [16]: > 100 µM
- IC50 [17]: > 100 µM
- IC50 [18]: > 100 µM
- IC50 [19]: > 100 µM
- inhibition [20]: 1%
- IC50 [21]: > 100 µM
- inhibition (Rattus norvegicus): 14%
- inhibition [22]: 6%
- inhibition [23]: 1%
- IC50 [24]: > 100 µM
